Assays:
[1] = target: T1, T. aurantiacus GH61A polypeptide (Thermoascus aurantiacus, UniProt G3XAP7, N13Y); test: Microcrystalline cellulose conversion assay II (Examples 10, 11), T. reesei CEL7A cellobiohydrolase I + A. oryzae CEL3A beta-glucosidase; format: biochemical; settings: 72 hours, 50° C.
Protocol: A 5% microcrystalline cellulose slurry was prepared by addition of 2.5 g of AVICEL® PH101 to a graduated 50 ml screw-cap conical tube followed by approximately 40 ml of deionized water. Each conical tube was then mixed thoroughly by shaking/vortexing, and adjusted to 50 ml total with deionized water and mixed again. For samples containing dioxy compounds, a similar slurry was prepared by the addition of 100 mg of solid dioxy compound and 2.5 g of AVICEL® PH101 to a graduated 50 ml screw-cap conical tube followed by approximately 40 ml of deionized water. Each conical tube was then mixed thoroughly by shaking/vortexing, and adjusted to 50 ml total with deionized water and mixed again.
The dioxy compounds assayed include caffeic acid, dichlorophenolindophenol (DCPIP), ethyl gallate, gallic acid, 3,4-dihydroxybenzoic acid, pyrocatechol, pyrogallol, sinapinic acid (3,5 dimethoxy-4-hydroxy cinnamic acid), and tannic acid.
In all cases, the contents of the tube (5% microcrystalline cellulose slurry with or without 0.2% dioxy compound) were then quickly transferred to a 100 ml beaker and stirred rapidly with a magnetic stirrer. Five hundred μl aliquots of the 5% AVICEL® slurry were pipetted into wells of a 2.0 ml 96-deepwell plate (Axygen, Union City, Calif.) using a 1000 μl micropipette with a wide aperture tip (end of tip cut off about 2 mm from the base). One hundred μl of deionized water and 300 μl of 3.33 mM MnSO4-500 mM sodium acetate pH 5 were then added to each well. Enzyme mixtures were prepared and then added simultaneously to all wells in a volume of 100 μl, for a total of 1 ml in each reaction. […] All experiments reported were performed in triplicate.
(§1) Primary analysis of the hydrolysis reactions was performed using an AGILENT® 1100 HPLC with CHEMSTATION® software equipped with an AMINEX™ HPX-87H column. After approximately 4 days, the deep-well plate was removed from the incubator and chilled overnight to 4° C. The plate was then mixed well by inversion and briefly centrifuged at 52×g in a SORVALL® RT7 centrifuge for 10 seconds. Samples were then mixed by pipetting, and 200 μl from each well were transferred to a MULTISCREEN® HV centrifuge filter plate assembly. The centrifuge filter plate assembly was centrifuged at 2000 rpm in a SORVALL® RT7 centrifuge for 20 minutes. […] Sugars were detected using a refractive index detector with quantification by integration compared to purified sugar standards.
(§2) All HPLC data processing was performed using MICROSOFT EXCEL™ software. […] In this assay only glucose was measured since beta-glucosidase was at high levels in all samples but the controls. The degree of cellulose conversion was calculated using Equation 1. Triplicate data points were averaged and standard deviation was calculated.
The microcrystalline cellulose hydrolysis assay was performed as described in Example 10.
Data were collected and analyzed, as described in Example 10, after 72 hours of incubation at 50° C.

[2] = target: T1, T. aurantiacus GH61A polypeptide; test: Microcrystalline cellulose conversion assay III (Examples 12, 13), T. reesei Cel7B endoglucanase I + A. oryzae CEL3A beta-glucosidase, with and without EDTA; format: biochemical; settings: 72 hours, 50° C.
Protocol: A 5% microcrystalline cellulose slurry was prepared by addition of 2.5 g of AVICEL® PH101 to a graduated 50 ml screw-cap conical tube followed by approximately 40 ml of deionized water. Each conical tube was then mixed thoroughly by shaking/vortexing, and adjusted to 50 ml total with deionized water and mixed again. Contents of the tube were then quickly transferred to a 100 ml beaker and stirred rapidly with a magnetic stirrer. Five hundred μl aliquots of the 5% AVICEL® slurry were pipetted into wells of a 2.0 ml 96-deepwell plate (Axygen, Union City, Calif., USA) using a 1000 μl micropipette with a wide aperture tip (end of tip cut off about 2 mm from the base). Two hundred μl of deionized water and 100 μl of 10 mM MnSO4-500 mM sodium acetate pH 5 were then added to each well. One hundred μl of either deionized water, a 1% gallic acid solution dissolved in water, or a 1% gallic acid solution containing 50 mM EDTA was added to each well. Enzyme mixtures were prepared and then added simultaneously to all wells in a volume of 100 μl, for a total of 1 ml in each reaction. […] All experiments reported were performed in triplicate.
as §1, with “briefly centrifuged 52×g in” for “briefly centrifuged at 52×g in”
as §2
The microcrystalline cellulose hydrolysis assay was performed as described in Example 12.
Data were collected and analyzed, as described in Example 12, after 72 hours of incubation at 50° C.

O=C(O)c1cc(O)c(O)c(O)c1 [gallic acid]
conversion (hydrolysis) of the microcrystalline cellulose ([1]; dioxy compound 0.1% w/w alone, no enzymes): no significant hydrolysis
conversion of the microcrystalline cellulose ([2]; gallic acid 0.1% w/w + 5 mM EDTA + T. aurantiacus GH61A polypeptide (5 mg/g), no other enzymes): no significant conversion
conversion of the microcrystalline cellulose ([2]; gallic acid 0.1% w/w + 5 mM EDTA, no enzymes): no significant conversion
conversion of the microcrystalline cellulose ([2]; gallic acid 0.1% w/w alone, no enzymes): no significant conversion

B1: T. aurantiacus GH61A polypeptide: GH61A polypeptide having cellulolytic enhancing activity (SEQ ID NO: 14), recombinantly produced in Aspergillus oryzae JaL250 (protein, listed as Thermoascus aurantiacus)
chain: MSFSKIIATAGVLASASLVAGHGFVQNIVIDGKYYGGYLVNQYPYMSNPPEVIAWSTTATDLGFVDGTGYQTPDIICHRGAKPGALTAPVSPGGTVELQWTPWPDSHHGPVINYLAPCNGDCSTVDKTQLEFFKIAESGLINDDNPPGIWASDNLIAANNSWTVTIPTTIAPGNYVLRHEIIALHSAQNQDGAQNYPQCINLQVTGGGSDNPAGTLGTALYHDTDPGILINIYQKLSSYIIPGPPLYTG
conversion of the microcrystalline cellulose ([1]; T. aurantiacus GH61A polypeptide (10 mg/g) + cellobiohydrolase I + beta-glucosidase (5 mg/g each), no dioxy compound): 21.4±0.5%
conversion of the microcrystalline cellulose ([2]; T. aurantiacus GH61A polypeptide (5 mg/g) + endoglucanase I + beta-glucosidase (5 mg/g each), no gallic acid): 4.0±0.2%
conversion of microcrystalline cellulose ([2]; T. aurantiacus GH61A polypeptide (5 mg/g) alone): no significant conversion

Source: patent publication US9394555B2, “Compositions comprising a polypeptide having cellulolytic enhancing activity and a dioxy compound and uses thereof” (priority 2010, dated 2016)
